# Laboratory results taken from US8871280B1, “Compositions and methods for treating fungal activity in plants or soil” (The United States of America, as represented by the …, priority 2011, dated 2014).
# Tests used:
# Rhizoctonia solani [1] = experiment: Fungicidal vs fungistatic potential (regrowth of mycelial plugs on fresh PDA, 7 days); type: cell-based, Rhizoctonia solani AG-4, isolate Rs 23A
# Procedure: The fungicidal and fungistatic potential of the PEs were determined by the method described by Garber and Houstan (Garber R. H., and B. R. Houston, Phytopathology, 49: 449-450 (1959)). In brief, three 5 mm diameter plugs were taken from the peripheral mycelial growth from each plate and placed in a fresh PDA plate. Following incubation at room temperature for 7 days, observations were recorded for new mycelial growth (fungistatic) or no mycelial growth (fungicidal). As control, peripheral mycelial plugs from soybean oil amended PDA plates were checked for fresh mycelial growth in fresh PDA plates.
# Rhizoctonia solani [2] = experiment: Filter disk fumigation method, mycelial growth inhibition on PDA; type: cell-based, Rhizoctonia solani AG-4, isolate Rs 23A; details: for Fumig1 % inhibition: fumigation experiment 1; for Fumig2 % inhibition: fumigation experiment 2
# Procedure: (§1) Fungal isolate and preparation of inoculum: Rhizoctonia solani AG-4, isolate Rs 23A is a highly virulent pathogenic isolate which infects many vegetables, ornamentals and turfgrasses (Lewis, J. A., and G. C. Papavizas, Soil Biology and Biochemistry, 9:195-201 (1987)). The fungus was grown in potato dextrose agar (PDA) plates and fungal plugs from the freshly growing mycelium were mixed with moist sterilized cracked wheat in a 2 L flask for 15 days in dark at 22° C. (Lakshman, D. K., et al., Proceedings of the National Academy of Science, USA, 95: 6425-6429 (1998)). The infested wheat was air dried in a sterile hood for 3 days, blended in a homogenizer and sieved through a mesh and stored at 2° C. before soil inoculation. A dose response of the inocula was carried out by thoroughly mixing using 0.25, 0.5, 0.75, 1.0, 1.25 and 1.50 g inoculums per Kg dry weight potting soil plus sterile water to maintain 25-30% moisture and incubating at room temperature for two weeks before sowing cucumber (cv muncher) seeds with the infested soil. The percent germination and post-emergence damping off of cucumber seedlings were recorded. The lowest inoculums dose that induced 100% postemergence damping off was estimated to be 1 to 1.25 g/Kg soil for inocula prepared over the span of the experiments. For soil fumigation with plant extracts (PEs), each time the minimum inoculum dose giving rise to 100% damping off was used.
# In the second protocol, the chemical was kept not in direct contact with the fungus and we hypothesized that the plant extract will most likely influence the growth of the pathogen by fumigation action. In this approach, three sterile 15 mm filter paper (Whatman International Ltd, Maidstone, UK) disks were placed on the edge of each of three plates on the PDA. Each disk was impregnated in the center with various amounts (5-50 ul/disk) of the test solution/suspension. For negative control, only soybean oil was placed in the filter disk. […] The average radial growth was calculated and the experiment was repeated one more time. Percent growth inhibition was calculated as reported for poison bed assay.
# cucumber seeds = experiment: Greenhouse assay of seed germination and phytotoxicity, soil treated with plant extract alone; details: in vivo
# Procedure: Soil treatment: For each treatment, 300 g of dry greenhouse soli (Pro-mix, Premier Horticulture LTD, Red Hill, Pa.) was thoroughly mixed with Rhizoctonia inoculum and incubated for 15 days as described above. […] The infested soil treated with only the carrier solution served as an untreated control. Following the treatment, the soil was thoroughly stirred to mix the contents and incubated in a double polythene bag closed tightly in the dark at room temperature for four days for fumigation to occur. Following the incubation, the bag was opened to allow as much PE to dissipate as possible. This was done by sprinkling the surface soil with sterile water every other day, and stirring the soil once every day for seven days. For assay of effect on seed germination and phytotoxicity of the plant extracts, soil was treated with plant extract formulations alone.
# Greenhouse studies: Treated soil from each treatment was distributed to 4-inch plastic pots into which 12 seeds of cucumbers (95-100% germination) were sown and lightly watered to keep soil moist. The treatments were color coded and pots were randomized across treatment. All plants were kept in a greenhouse between 20° C. (night) to 26° C. (day) with 14 h of light. There were three pots per treatment in each experiment, and the experiment was repeated three times. As positive control, a broad spectrum popular soil fungicide Banrot® 40 WP (The Scotts Company, Ohio) was used following manufacturer's recommendation to control the disease. Total number of seedlings without any sign of damping off in each pot was recorded and percentage of disease suppression were calculated four weeks after sowing cucumber seeds.
# Rhizoctonia solani [3] = experiment: Greenhouse suppression of damping off of cucumber seedlings in R. solani infested soil amended with plant extract; type: in vivo, Rhizoctonia solani AG-4, isolate Rs 23A
# Rhizoctonia solani [4] = experiment: Poison food technique (contact action), mycelial growth inhibition in PDA; type: cell-based, Rhizoctonia solani AG-4, isolate Rs 23A; details: for PoisonB1 % inhibition: poison bed experiment 1; for PoisonB2 % inhibition: poison bed experiment 2
# Procedure: as §1
# In vitro bioassays: Two in vitro bioassay methods were used to investigate the mycelial growth inhibitory potentials of PEs. In the poison food technique, test chemical/plant extract was mixed at concentrations of 15, 30, 45, 60, 75, and 150 μl per 20 ml autoclaved PDA at 50° C., poured on three sterile disposable plastic plates (100×15 mm, Fisherbrand) at 20 ml/plate and cooled to room temperature to solidify (Dhingra, O.D., and J. B. Sinclair, 1995, Basic Plant Pathology Methods, 2nd Edition, Lewis Publishers, Boca Raton and London). […] Each plate was seeded in the center with a 5 mm diameter agar disk of the freshly grown Rhizoctonia pathogen, mycelial side facing the medium, and sealed with stretched Parafilm® M (Fisher Scientific). The plates were incubated in the dark at room temperature and when the pathogen reached to the edge of the plates in the control treatment (soybean oil), radial measurement of fungal growth in plates treated with PEs were recorded by taking three measurements from each plate. The experiment was repeated one more time. The percent mycelial growth inhibition (MGI) due to PE was calculated using the following formula: […] where dc=Avg. radial growth in mm of pathogen in control plate; dt=avg. radial growth in mm of pathogen in treated plate.
smiles,measurement,setting,value
C=CCc1ccc(OC)cc1,Effect (fumigation),Rhizoctonia solani [1]; amount oil 15 μL/20 mL plate,S
same,"Effect (poison bed, contact action)",Rhizoctonia solani [1]; amount oil 15 μL/20 mL plate,S
same,Effect (fumigation),Rhizoctonia solani [1]; amount oil 30 μL/20 mL plate,S
same,"Effect (poison bed, contact action)",Rhizoctonia solani [1]; amount oil 30 μL/20 mL plate,S
same,Effect (fumigation),Rhizoctonia solani [1]; amount oil 45 μL/20 mL plate,S
same,"Effect (poison bed, contact action)",Rhizoctonia solani [1]; amount oil 45 μL/20 mL plate,S
same,Effect (fumigation),Rhizoctonia solani [1]; amount oil 60 μL/20 mL plate,S
same,"Effect (poison bed, contact action)",Rhizoctonia solani [1]; amount oil 60 μL/20 mL plate,S
same,Effect (fumigation),Rhizoctonia solani [1]; amount oil 75 μL/20 mL plate,S
same,"Effect (poison bed, contact action)",Rhizoctonia solani [1]; amount oil 75 μL/20 mL plate,S
same,Effect (fumigation),Rhizoctonia solani [1]; amount oil 150 μL/20 mL plate,S
same,"Effect (poison bed, contact action)",Rhizoctonia solani [1]; amount oil 150 μL/20 mL plate,S
same,Fungicidal vs fungistatic nature,"Rhizoctonia solani [1]; in vitro, fumigation and contact action",fungistatic
same,Fumig1 % inhibition,Rhizoctonia solani [2]; amount oil 15 μL/20 mL plate,95%
same,Fumig2 % inhibition,Rhizoctonia solani [2]; amount oil 15 μL/20 mL plate,97%
same,Fumig1 % inhibition,Rhizoctonia solani [2]; amount oil 30 μL/20 mL plate,97%
same,Fumig2 % inhibition,Rhizoctonia solani [2]; amount oil 30 μL/20 mL plate,102%
same,Fumig1 % inhibition,Rhizoctonia solani [2]; amount oil 45 μL/20 mL plate,97%
same,Fumig2 % inhibition,Rhizoctonia solani [2]; amount oil 45 μL/20 mL plate,102%
same,Fumig1 % inhibition,Rhizoctonia solani [2]; amount oil 60 μL/20 mL plate,97%
same,Fumig2 % inhibition,Rhizoctonia solani [2]; amount oil 60 μL/20 mL plate,100%
same,Fumig1 % inhibition,Rhizoctonia solani [2]; amount oil 75 μL/20 mL plate,98%
same,Fumig2 % inhibition,Rhizoctonia solani [2]; amount oil 75 μL/20 mL plate,103%
same,Fumig1 % inhibition,Rhizoctonia solani [2]; amount oil 150 μL/20 mL plate,99%
same,Fumig2 % inhibition,Rhizoctonia solani [2]; amount oil 150 μL/20 mL plate,103%
same,"Inhibition of R. solani growth by fumigation action, in words","Rhizoctonia solani [2]; in vitro, filter disk",potent inhibitors
same,% Seed germination (+ PE only),cucumber seeds,75.00%
same,Avg. seed germination (+ PE only),cucumber seeds,9.00
same,% Disease suppression (+ PE + R. solani),"Rhizoctonia solani [3]; cucumber damping off, soil amendment at 0.3% (v/w), four weeks after sowing",58.33%
same,Avg. seed Germination (+ PE + R. solani),"Rhizoctonia solani [3]; cucumber, 12 seeds sown per pot, infested soil amended with 0.3% PE",7.00
same,PoisonB1 % inhibition,Rhizoctonia solani [4]; amount oil 15 μL/20 mL plate,94%
same,PoisonB2 % inhibition,Rhizoctonia solani [4]; amount oil 15 μL/20 mL plate,13%
same,PoisonB1 % inhibition,Rhizoctonia solani [4]; amount oil 30 μL/20 mL plate,100%
same,PoisonB2 % inhibition,Rhizoctonia solani [4]; amount oil 30 μL/20 mL plate,56%
same,PoisonB1 % inhibition,Rhizoctonia solani [4]; amount oil 45 μL/20 mL plate,100%
same,PoisonB2 % inhibition,Rhizoctonia solani [4]; amount oil 45 μL/20 mL plate,92%
same,PoisonB1 % inhibition,Rhizoctonia solani [4]; amount oil 60 μL/20 mL plate,100%
same,PoisonB2 % inhibition,Rhizoctonia solani [4]; amount oil 60 μL/20 mL plate,100%
same,PoisonB1 % inhibition,Rhizoctonia solani [4]; amount oil 75 μL/20 mL plate,100%
same,PoisonB2 % inhibition,Rhizoctonia solani [4]; amount oil 75 μL/20 mL plate,100%
same,PoisonB1 % inhibition,Rhizoctonia solani [4]; amount oil 150 μL/20 mL plate,100%
same,PoisonB2 % inhibition,Rhizoctonia solani [4]; amount oil 150 μL/20 mL plate,100%
same,"Inhibition of R. solani growth by contact (poison bed assay), in words","Rhizoctonia solani [4]; in vitro, PDA",potent inhibitors
C=CC(C)(O)CCC=C(C)CCC=C(C)C (mixture of isomers) [Nerolidol],Effect (fumigation),Rhizoctonia solani [1]; amount oil 15 μL/20 mL plate,S
same,"Effect (poison bed, contact action)",Rhizoctonia solani [1]; amount oil 15 μL/20 mL plate,S
same,Effect (fumigation),Rhizoctonia solani [1]; amount oil 30 μL/20 mL plate,S
same,"Effect (poison bed, contact action)",Rhizoctonia solani [1]; amount oil 30 μL/20 mL plate,S
same,Effect (fumigation),Rhizoctonia solani [1]; amount oil 45 μL/20 mL plate,S
same,"Effect (poison bed, contact action)",Rhizoctonia solani [1]; amount oil 45 μL/20 mL plate,S
same,Effect (fumigation),Rhizoctonia solani [1]; amount oil 60 μL/20 mL plate,S
same,"Effect (poison bed, contact action)",Rhizoctonia solani [1]; amount oil 60 μL/20 mL plate,S
same,Effect (fumigation),Rhizoctonia solani [1]; amount oil 75 μL/20 mL plate,S
same,"Effect (poison bed, contact action)",Rhizoctonia solani [1]; amount oil 75 μL/20 mL plate,S
same,Effect (fumigation),Rhizoctonia solani [1]; amount oil 150 μL/20 mL plate,S
same,"Effect (poison bed, contact action)",Rhizoctonia solani [1]; amount oil 150 μL/20 mL plate,S
same,Fumig1 % inhibition,Rhizoctonia solani [2]; amount oil 15 μL/20 mL plate,0%
same,Fumig2 % inhibition,Rhizoctonia solani [2]; amount oil 15 μL/20 mL plate,0%
same,Fumig1 % inhibition,Rhizoctonia solani [2]; amount oil 30 μL/20 mL plate,0%
same,Fumig2 % inhibition,Rhizoctonia solani [2]; amount oil 30 μL/20 mL plate,40%
same,Fumig1 % inhibition,Rhizoctonia solani [2]; amount oil 45 μL/20 mL plate,0%
same,Fumig2 % inhibition,Rhizoctonia solani [2]; amount oil 45 μL/20 mL plate,42%
same,Fumig1 % inhibition,Rhizoctonia solani [2]; amount oil 60 μL/20 mL plate,0%
same,Fumig2 % inhibition,Rhizoctonia solani [2]; amount oil 60 μL/20 mL plate,41%
same,Fumig1 % inhibition,Rhizoctonia solani [2]; amount oil 75 μL/20 mL plate,0%
same,Fumig2 % inhibition,Rhizoctonia solani [2]; amount oil 75 μL/20 mL plate,42%
same,Fumig1 % inhibition,Rhizoctonia solani [2]; amount oil 150 μL/20 mL plate,0%
same,Fumig2 % inhibition,Rhizoctonia solani [2]; amount oil 150 μL/20 mL plate,41%
same,PoisonB1 % inhibition,Rhizoctonia solani [4]; amount oil 15 μL/20 mL plate,71%
same,PoisonB2 % inhibition,Rhizoctonia solani [4]; amount oil 15 μL/20 mL plate,78%
same,PoisonB1 % inhibition,Rhizoctonia solani [4]; amount oil 30 μL/20 mL plate,78%
same,PoisonB2 % inhibition,Rhizoctonia solani [4]; amount oil 30 μL/20 mL plate,81%
same,PoisonB1 % inhibition,Rhizoctonia solani [4]; amount oil 45 μL/20 mL plate,83%
same,PoisonB2 % inhibition,Rhizoctonia solani [4]; amount oil 45 μL/20 mL plate,87%
same,PoisonB1 % inhibition,Rhizoctonia solani [4]; amount oil 60 μL/20 mL plate,84%
same,PoisonB2 % inhibition,Rhizoctonia solani [4]; amount oil 60 μL/20 mL plate,90%
same,PoisonB1 % inhibition,Rhizoctonia solani [4]; amount oil 75 μL/20 mL plate,87%
same,PoisonB2 % inhibition,Rhizoctonia solani [4]; amount oil 75 μL/20 mL plate,92%
same,PoisonB1 % inhibition,Rhizoctonia solani [4]; amount oil 150 μL/20 mL plate,89%
same,PoisonB2 % inhibition,Rhizoctonia solani [4]; amount oil 150 μL/20 mL plate,99%
